According to patent US20210205196A1, “PRESERVED COMPOSITIONS” (Conopco, Inc., d/b/a UNILEVER, priority 2018, published 2021):

Legend:
[1] = test system: Gram Negative fermenting bacteria: Enterobacter cloacae, Klebsiella sp; assay: Modified Ph. Eur. 5.1.3 microbial challenge test in shampoo, Pool 2; type: cell-based
[2] = test system: Gram Negative non-fermenting bacteria: Pseudomonas aeruginosa, Burkholderia cepacia, Strenotrophomonas sp; assay: Modified Ph. Eur. 5.1.3 microbial challenge test in shampoo, Pool 1; type: cell-based
[3] = 0.5% (w/w) acid in shampoo base, pH 5, 7 days
[4] = 0.5% (w/w) acid in shampoo base, pH 5, 14 days (reinoculated at 7 days)
[5] = 0.5% (w/w) acid in shampoo base, pH 5, 21 days (reinoculated at 7 and 14 days)
[6] = 0.5% (w/w) acid in shampoo base, pH 5, 28 days (reinoculated at 7 and 14 days)
[7] = 1.0% (w/w) acid in shampoo base, pH 5, 7 days
[8] = 1.0% (w/w) acid in shampoo base, pH 5, 14 days (reinoculated at 7 days)
[9] = 1.0% (w/w) acid in shampoo base, pH 5, 21 days (reinoculated at 7 and 14 days)
[10] = 1.0% (w/w) acid in shampoo base, pH 5, 28 days (reinoculated at 7 and 14 days)

Row | SMILES | Microbial Log reduction [1, 3] [log] | Microbial Log reduction [1, 4] [log] | Microbial Log reduction [1, 5] [log] | Microbial Log reduction [1, 6] [log] | Microbial Log reduction [1, 7] [log] | Microbial Log reduction [1, 8] [log] | Microbial Log reduction [1, 9] [log] | Microbial Log reduction [1, 10] [log] | Microbial Log reduction [2, 3] [log] | Microbial Log reduction [2, 4] [log] | Microbial Log reduction [2, 5] [log] | Microbial Log reduction [2, 6] [log] | Microbial Log reduction [2, 7] [log] | Microbial Log reduction [2, 8] [log] | Microbial Log reduction [2, 9] [log] | Microbial Log reduction [2, 10] [log]
1 | O=C(O)CC(O)(CC(=O)O)C(=O)O [Citric acid, citric acid] | 4.88 | >5.69 | >5.80 | >5.80 | 4.97 | >5.69 | >5.80 | >5.80 | >5.61 | 3.84 | >5.74 | >5.74 | >5.61 | >5.56 | >5.74 | >5.74
2 | C=C(CC(=O)O)C(=O)O [Itaconic acid] | >5.88 | >5.69 | >5.80 | >5.80 | >5.88 | >5.69 | >5.80 | >5.80 | >5.68 | >5.56 | >5.74 | >5.74 | >5.61 | >5.56 | >5.74 | >5.74
3 | CC(O)C(=O)O (stereo not drawn) [Lactic acid, lactic acid] | 3.93 | >5.69 | >5.80 | >5.80 | >5.88 | >5.69 | >5.80 | >5.80 | >5.61 | >5.56 | >5.74 | >5.74 | >5.61 | >5.56 | >5.74 | >5.74
